The source of these data is ChEMBL document CHEMBL1142873, “Synthesis, structural activity relationship and anti-tubercular activity of novel pyrazoline derivatives” (2007).

What all share (assay type): functional
Assay [1] has as its system Mycobacterium tuberculosis. In words: Antimycobacterial activity against Mycobacterium tuberculosis H37Rv at 0.0118 uM.
Assay [2] has as its system Mycobacterium tuberculosis. The assay is described as follows: Antimycobacterial activity against Mycobacterium tuberculosis H37Rv.
Assay [3] concerns Mycobacterium tuberculosis. The assay is described as follows: Antimycobacterial activity against Mycobacterium tuberculosis H37Rv at 0.0164 uM.
For assay [4], the system named is Mycobacterium tuberculosis. In words: Antimycobacterial activity against Mycobacterium tuberculosis H37Rv at 0.0202 uM.
Assay [5] deals with Mycobacterium tuberculosis. The assay is described as follows: Antimycobacterial activity against Mycobacterium tuberculosis H37Rv at 0.2080 uM.
Assay [6] concerns Mycobacterium tuberculosis. The assay is described as follows: Antimycobacterial activity against Mycobacterium tuberculosis H37Rv at 0.0201 uM.
Assay [7] relates to Mycobacterium tuberculosis. In words: Antimycobacterial activity against Mycobacterium tuberculosis H37Rv at 0.1706 uM.
Assay [8] concerns Mycobacterium tuberculosis. The assay is described as follows: Antimycobacterial activity against Mycobacterium tuberculosis H37Rv at 0.0138 uM.
Assay [9] deals with Mycobacterium tuberculosis. The assay is described as follows: Antimycobacterial activity against Mycobacterium tuberculosis H37Rv at 0.0140 uM.
Assay [10] has as its system Mycobacterium tuberculosis. The assay is described as follows: Antimycobacterial activity against Mycobacterium tuberculosis H37Rv at 0.0354 uM.
Assay [11] has as its system Mycobacterium tuberculosis. The assay is described as follows: Antimycobacterial activity against Mycobacterium tuberculosis H37Rv at 0.0135 uM.
The subject of assay [12] is Mycobacterium tuberculosis. In words: Antimycobacterial activity against Mycobacterium tuberculosis H37Rv at 0.0149 uM.
Assay [13] relates to Mycobacterium tuberculosis. In words: Antimycobacterial activity against Mycobacterium tuberculosis H37Rv at 0.0977 uM.
Assay [14] has as its system Mycobacterium tuberculosis. In words: Antimycobacterial activity against Mycobacterium tuberculosis H37Rv at 0.0148 uM.
The test system of assay [15] is Mycobacterium tuberculosis. The assay is described as follows: Antimycobacterial activity against Mycobacterium tuberculosis H37Rv at 0.0143 uM.
Assay [16] has as its system Mycobacterium tuberculosis. In words: Antimycobacterial activity against Mycobacterium tuberculosis H37Rv at 0.0132 uM.
In assay [17] the test system is Mycobacterium tuberculosis. The assay is described as follows: Antimycobacterial activity against Mycobacterium tuberculosis H37Rv at 0.0092 uM.
Assay [18] has as its system Mycobacterium tuberculosis. In words: Antimycobacterial activity against Mycobacterium tuberculosis H37Rv at 0.0034 uM.
Assay [19] concerns Mycobacterium tuberculosis. In words: Antimycobacterial activity against Mycobacterium tuberculosis H37Rv at 0.1467 uM.
For assay [20], the system named is Mycobacterium tuberculosis. In words: Antimycobacterial activity against Mycobacterium tuberculosis H37Rv at 0.0150 uM.
Assay [21] concerns Mycobacterium tuberculosis. The assay is described as follows: Antimycobacterial activity against Mycobacterium tuberculosis H37Rv at 0.0084 uM.
Assay [22] relates to Mycobacterium tuberculosis. In words: Antimycobacterial activity against Mycobacterium tuberculosis H37Rv at 0.0403 uM.

SMILES strings stand for the structures. In brackets after ≈: the same amount, converted by molar mass.

For `COc1ccccc1NC(=S)N1N=C(c2ccc(O)c(C)c2)CC1c1ccc(OC)c(OC)c1` (stereo not given), the inhibition at 0.0118 µM in assay [1] worked out at 88%. In [2], this compound displayed a minimal inhibitory concentration (MIC) of 5.67 µg/mL (≈ 11.9 µM).

In [3], `COc1ccccc1NC(=S)N1N=C(c2ccc(O)c(C)c2)CC1c1ccc(F)cc1` (stereo not given) displayed an inhibition at 0.0164 µM of 16%.

`COc1ccccc1NC(=S)N1N=C(c2ccc(O)c(C)c2)CC1c1ccccc1Cl` (stereo not given): 0.0202 µM produced 44% inhibition in assay [4].

For the compound `COc1ccccc1NC(=S)N1N=C(c2ccc(O)c(C)c2)CC1c1cccc([N+](=O)[O-])c1` (stereo not given), the inhibition at 0.208 µM in assay [5] was determined as 8%.

The compound `COc1ccccc1NC(=S)N1N=C(c2ccc(O)c(C)c2)CC1Cc1ccco1` (stereo not given) yielded an inhibition at 0.0201 µM in assay [6] of 18%.

Compound `Cc1cc(C2=NN(C(=S)Nc3ccccc3C)C(Cc3ccco3)C2)ccc1O` (stereo not given) had an inhibition at 0.1706 µM in assay [7] of 26%.

On to `COc1ccccc1NC(=S)N1N=C(c2ccc(O)c(C)c2)CC1c1ccc(Cl)cc1` (stereo not given), for which the inhibition at 0.0138 µM in [8] is 4%. In addition, the MIC in [2] was determined as 6.25 µg/mL (≈ 13.8 µM).

`Cc1cc(C2=NN(C(=S)Nc3ccccc3C)C(c3ccc(N(C)C)cc3)C2)ccc1O` (stereo not given) gave an inhibition at 0.014 µM in [9] of 12%. This compound came in with an MIC in assay [2] of 6.25 µg/mL (≈ 14.1 µM).

`Cc1cc(C2=NN(C(=S)Nc3ccccc3C)C(c3ccccc3)C2)ccc1O` (stereo not given): the inhibition at 0.0354 µM in [10] turned out to be 29%.

`COc1ccccc1NC(=S)N1N=C(c2ccc(O)c(C)c2)CC1c1ccc(N(C)C)cc1` (stereo not given) showed an inhibition at 0.0135 µM in [11] of 28%. For the same compound, in assay [2], the MIC was 6.25 µg/mL (≈ 13.6 µM).

As for `COc1ccccc1NC(=S)N1N=C(c2ccc(O)c(C)c2)CC1c1ccccc1` (stereo not given), in [12], at 0.0149 µM the inhibition was 6%. The same compound came in with an MIC in assay [2] of 6.25 µg/mL (≈ 15 µM).

For `COc1ccc(C2CC(c3ccc(O)c(C)c3)=NN2C(=S)Nc2ccccc2C)cc1OC` (stereo not given), 0.0977 µM produced 72% inhibition in assay [13].

`Cc1cc(C2=NN(C(=S)Nc3ccccc3C)C(c3ccc(F)cc3)C2)ccc1O` (stereo not given) registered an inhibition at 0.0148 µM in assay [14] of 32%. The MIC in assay [2] is 6.25 µg/mL (≈ 14.9 µM).

Compound `Cc1cc(C2=NN(C(=S)Nc3ccccc3C)C(c3c(Cl)cccc3Cl)C2)ccc1O` (stereo not given) came in with an inhibition at 0.0143 µM in assay [15] of 21%. Also, the MIC in assay [2] was determined as 6.25 µg/mL (≈ 13.3 µM).

In [16], `Cc1cc(C2=NN(C(=S)Nc3ccccc3C)C(c3cccc([N+](=O)[O-])c3)C2)ccc1O` (stereo not given) had an inhibition at 0.0132 µM of 14%. In assay [2], this compound yielded an MIC of 6.25 µg/mL (≈ 14 µM).

Compound `COc1ccc(C2CC(c3ccc(O)c(C)c3)=NN2C(=S)Nc2ccccc2OC)cc1` (stereo not given) showed an inhibition at 0.0092 µM in [17] of 94%. Also, 4.12 µg/mL (≈ 9.21 µM) was the least that counted as inhibitory in [2] (MIC).

In assay [18], `COc1ccccc1NC(=S)N1N=C(c2ccc(O)c(C)c2)CC1c1c(Cl)cccc1Cl` (stereo not given) came in with an inhibition at 0.0034 µM of 98%. In assay [2], this compound registered an MIC of 1.66 µg/mL (≈ 3.41 µM).

With `COc1cc(C2CC(c3ccc(O)c(C)c3)=NN2C(=S)Nc2ccccc2C)cc(OC)c1OC` (stereo not given), the inhibition at 0.1467 µM in assay [19] stood at 44%.

With `Cc1cc(C2=NN(C(=S)Nc3ccccc3C)C(c3ccccc3Cl)C2)ccc1O` (stereo not given), in assay [20], at 0.015 µM the inhibition was 33%. This compound also returned an MIC in [2] of 6.25 µg/mL (≈ 14.3 µM).

In assay [21], `COc1ccccc1NC(=S)N1N=C(c2ccc(O)c(C)c2)CC1c1cc(OC)c(OC)c(OC)c1` (stereo not given) displayed an inhibition at 0.0084 µM of 92%.

`Cc1cc(C2=NN(C(=S)Nc3ccccc3C)C(c3ccc(Cl)cc3)C2)ccc1O` (stereo not given) had an inhibition at 0.0143 µM in assay [15] of 44%. This compound also returned an MIC in [2] of 6.25 µg/mL (≈ 14.3 µM).

In the case of `COc1ccc(C2CC(c3ccc(O)c(C)c3)=NN2C(=S)Nc2ccccc2C)cc1` (stereo not given), the inhibition at 0.0403 µM in assay [22] was found to be 6%.

With `NNC(=O)c1ccncc1` [ISONIAZID], in [2], it took 0.025 µg/mL (≈ 0.182 µM) to inhibit growth (MIC).
